Earlier results as cited in US20210022994A1, “SUSTAINED RELEASE TREPOSTINIL-COMPOUND MICROPARTICLE COMPOSITIONS” (Lupin Holdings, B.V., priority 2019, published 2021).

Conditions: in human plasma

half-life: 2 to 4 h
Structure (SMILES): CCCCC[C@H](O)CC[C@@H]1[C@H]2Cc3cccc(OCC(=O)O)c3C[C@H]2C[C@H]1O [treprostinil, (1R,2R,3aS,9aS)-[[2,3,3a,4,9,9a-hexahydro-2-hydroxy-1-[(3S)-3-hydroxyoctyl]-1Hbenz[f]inden-5-yl]oxy]acetic acid]
